In US12384797B2, “Thioeno[3,2-b] pyridin-7-amine compounds for treating familial dysautonomia” (PTC THERAPEUTICS, INC., priority 2019, dated 2025):

system: Elongator complex protein 1 (ELP1, also referred to as IKBKAP); experiment: IKBKAP-HTRF assay (IKBKAP protein in lysates of FD patient-derived fibroblasts); assay type: cell-based, human; settings: 48 hours incubation, 7-point concentration curve
Protocol: The assay is used for the quantitative determination of Elongator complex protein 1 (ELP1, also referred to as IKBKAP) concentration in cell lysates using the HTRF® (Homogeneous Time-Resolved Fluorescence) technology. IKBKAP is detected in a sandwich HTRF assay by use of an anti-IKAP antibody labeled with a donor and an anti-IKAP antibody labeled with an acceptor.
Cells were thawed and incubated in DMEM-10% FBS for 72 hours. Cells were trypsinized, counted, and re-suspended to a concentration of 50,000 cells/mL in DMEM-10% FBS. A 199 μL aliquot of the cell suspensions were plated at 10,000 cells per well in a 96 well microtiter plate and incubated for 3 to 5 hours. […] Test compounds were serially diluted 3.16-fold in 100% DMSO to generate a 7-point concentration curve. A 1 μL aliquot of 200× compound solution was transferred to cell-containing wells, and cells were incubated for 48 hours in a cell culture incubator (37° C., 5% CO2, 100% relative humidity). Triplicate samples were set up for each compound concentration. After 48 hours, the supernatant was removed from the cells and 50 μL of the 1×LB4 lysis buffer, containing protease inhibitors, was added to the cells and incubated with shaking at room temperature for 1 hour. A 36 μL aliquot of this lysate was subsequently transferred to the 384-well plate containing 4 μL of the antibody solution (1:50 dilution of anti IKAP d2 and anti-IKAP K(9+8) in detection buffer). The 384-well plate was then centrifuged for 1 minute to bring the solutions to the bottom of the plate and incubated overnight at 4° C. Fluorescence for each well of the plate at 665 nm and 620 nm was measured was on the EnVision plate reader (Perkin Elmer). The ΔF for each sample is calculated by:
[formula] wherein Signal is the normalized fluorescence for each sample well and Blank is the average normalized average fluorescence for the Blank control wells.
The maximum fold increase (MFI) in IKBKAP protein abundance for compounds of Formula (I) or a form thereof relative to the vehicle control are provided in Table 1. MFI was calculated by dividing the ΔF value for each sample well by the sample ΔF for the vehicle control wells.
The EC2x for IKBKAP protein expression obtained from the 7-point concentration curve generated for each test compound according to the protocol in Biological Example 1 are also provided in Table 1. The term “EC2x for IKBKAP protein expression” is defined as the concentration of test compound that is effective in producing two times the amount of IKBKAP protein in a FD patient cell compared to the amount produced from the DMSO vehicle control.

| Compound | EC2x for IKBKAP protein expression (concentration producing two times the amount of IKBKAP protein vs DMSO vehicle control) | MFI (maximum fold increase in IKBKAP protein abundance relative to the vehicle control) |
| --- | --- | --- |
| 2-[(2R)-2-amino-3-fluoropropyl]-5-chloro-3-cyclopropyl-N-[(thiophen-2-yl)methyl]thieno[3,2-b]pyridin-7-amine [Compound 77] | *** (between >0.02 μM and ≤0.5 μM is indicated by three stars (***)) | **** (between >3.9 and ≤4.9 is indicated by four stars (****)) |
| 2-[(2R)-2-amino-3-fluoropropyl]-5-chloro-3-methyl-N-[(1,3-thiazol-2-yl)methyl]thieno[3,2-b]pyridin-7-amine [Compound 69] | ***** (≤0.005 μM is indicated by five stars (*****)) | ***** (>4.9 is indicated by five stars (*****)) |
| 2-[(2S)-2-amino-4-methylpentyl]-5-chloro-3-cyclopropyl-N-[(1,3-thiazol-2-yl)methyl]thieno[3,2-b]pyridin-7-amine [Compound 80] | *** (between >0.02 μM and ≤0.5 μM is indicated by three stars (***)) | *** (between >2.9 and ≤3.9 is indicated by three stars (***)) |
| 2-[(2S)-2-aminobutyl]-5-chloro-3-cyclopropyl-N-[(1,3-thiazol-2-yl)methyl]thieno[3,2-b]pyridin-7-amine [Compound 86] | *** (between >0.02 μM and ≤0.5 μM is indicated by three stars (***)) | **** (between >3.9 and ≤4.9 is indicated by four stars (****)) |
| 2-[(2S)-2-aminobutyl]-5-chloro-3-cyclopropyl-N-[(thiophen-2-yl)methyl]thieno[3,2-b]pyridin-7-amine [Compound 75] | *** (between >0.02 μM and ≤0.5 μM is indicated by three stars (***)) | ***** (>4.9 is indicated by five stars (*****)) |
| Clc1cc(NCc2ccco2)c2sccc2n1 [Compound 1, 5-chloro-N-[(furan-2-yl)methyl]thieno[3,2-b]pyridin-7-amine] | * (An EC2x>1 μM is indicated by one star (*)) | *** (between >2.9 and ≤3.9 is indicated by three stars (***)) |
| Cc1csc2c(NCc3ccco3)cc(Cl)nc12 [Compound 2, 5-chloro-N-[(furan-2-yl)methyl]-3-methylthieno[3,2-b]pyridin-7-amine] | *** (between >0.02 μM and ≤0.5 μM is indicated by three stars (***)) | ***** (>4.9 is indicated by five stars (*****)) |
| Cc1c(C(C)O)sc2c(NCc3ccco3)cc(Cl)nc12 (centres unmarked) [Compound 3, 1-(5-chloro-7-{[(furan-2-yl)methyl]amino}-3-methylthieno[3,2-b]pyridin-2-yl)ethan-1-ol] | *** (between >0.02 μM and ≤0.5 μM is indicated by three stars (***)) | *** (between >2.9 and ≤3.9 is indicated by three stars (***)) |
| CC(O)c1cc2nc(Cl)cc(NCc3ccco3)c2s1 (centres unmarked) [Compound 4, 1-(5-chloro-7-{[(furan-2-yl)methyl]amino}thieno[3,2-b]pyridin-2-yl)ethan-1-ol] | * (An EC2x>1 μM is indicated by one star (*)) | ** (between >1.9 and ≤2.9 is indicated by two stars (**)) |
| OCc1cc2nc(Cl)cc(NCc3ccco3)c2s1 [Compound 5, (5-chloro-7-{[(furan-2-yl)methyl]amino}thieno[3,2-b]pyridin-2-yl)methanol] | * (An EC2x>1 μM is indicated by one star (*)) | * (An MFI≤1.9 is indicated by one star (*)) |
| Clc1cc(NCc2ccco2)c2scc(Cl)c2n1 [Compound 6, 3,5-dichloro-N-[(furan-2-yl)methyl]thieno[3,2-b]pyridin-7-amine] | *** (between >0.02 μM and ≤0.5 μM is indicated by three stars (***)) | ***** (>4.9 is indicated by five stars (*****)) |
| Clc1cc(NCc2ccco2)c2scc(Br)c2n1 [Compound 7, 3-bromo-5-chloro-N-[(furan-2-yl)methyl]thieno[3,2-b]pyridin-7-amine] | *** (between >0.02 μM and ≤0.5 μM is indicated by three stars (***)) | ***** (>4.9 is indicated by five stars (*****)) |
| Clc1cc(NCc2nccs2)c2scc(Cl)c2n1 [Compound 8, 3,5-dichloro-N-[(1,3-thiazol-2-yl)methyl]thieno[3,2-b]pyridin-7-amine] | *** (between >0.02 μM and ≤0.5 μM is indicated by three stars (***)) | ***** (>4.9 is indicated by five stars (*****)) |
| Clc1cc(NCc2nccs2)c2scc(Br)c2n1 [Compound 9, 3-bromo-5-chloro-N-[(1,3-thiazol-2-yl)methyl]thieno[3,2-b]pyridin-7-amine] | *** (between >0.02 μM and ≤0.5 μM is indicated by three stars (***)) | ***** (>4.9 is indicated by five stars (*****)) |
| Cc1cc(NCc2nccs2)c2scc(Cl)c2n1 [Compound 10, 3-chloro-5-methyl-N-[(1,3-thiazol-2-yl)methyl]thieno[3,2-b]pyridin-7-amine] | * (An EC2x>1 μM is indicated by one star (*)) | * (An MFI≤1.9 is indicated by one star (*)) |
| N#Cc1cc(NCc2cccs2)c2scc(Br)c2n1 [Compound 11, 3-bromo-7-{[(thiophen-2-yl)methyl]amino}thieno[3,2-b]pyridine-5-carbonitrile] | *** (between >0.02 μM and ≤0.5 μM is indicated by three stars (***)) | ** (between >1.9 and ≤2.9 is indicated by two stars (**)) |
| N#Cc1cc(NCc2cccs2)c2scc(C#N)c2n1 [Compound 12, 7-{[(thiophen-2-yl)methyl]amino}thieno[3,2-b]pyridine-3,5-dicarbonitrile] | *** (between >0.02 μM and ≤0.5 μM is indicated by three stars (***)) | ** (between >1.9 and ≤2.9 is indicated by two stars (**)) |
| N#Cc1csc2c(NCc3cccs3)cc(Cl)nc12 [Compound 13, 5-chloro-7-{[(thiophen-2-yl)methyl]amino}thieno[3,2-b]pyridine-3-carbonitrile] |  | ***** (>4.9 is indicated by five stars (*****)) |
